Source: patent US7652047B2, “Phenylamino isothiazole carboxamidines as MEK inhibitors” (Ardea Biosciences, Inc., priority 2005, dated 2010)
pIC50: −log10 of the molar value.

What follows are compounds tested against T1, MEK1^CA (human GST-MEK1, constitutively active, Ser218Asp and Ser222Asp) (Homo sapiens, UniProt Q02750, S218D/S222D) (assay: MEK1 enzymatic activity assay (MEK1^CA / ERK2 / MBP, [γ-33P]ATP incorporation)). Details: Table 1, compounds of formula I; read-out: Avg IC50.
T1 construct: GST; made in house; host or cells: Escherichia coli
Assay type: biochemical
Procedure, shortened: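 Cascade assay: 25 µl reactions with 0.002 nmol E. coli-expressed GST-MEK1 S218D/S222D, 0.02 nmol His-tagged mouse ERK2, 0.25 nmol MBP, 0.25 nmol unlabeled ATP and 0.1 µCi [γ-33P]ATP. Compound preincubated 30 min at ambient temperature with MEK1/ERK2; stopped with TCA, 33P-labelled protein filter-captured and scintillation-counted.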

T1 sequence (Q02750 whole entry S218D/S222D): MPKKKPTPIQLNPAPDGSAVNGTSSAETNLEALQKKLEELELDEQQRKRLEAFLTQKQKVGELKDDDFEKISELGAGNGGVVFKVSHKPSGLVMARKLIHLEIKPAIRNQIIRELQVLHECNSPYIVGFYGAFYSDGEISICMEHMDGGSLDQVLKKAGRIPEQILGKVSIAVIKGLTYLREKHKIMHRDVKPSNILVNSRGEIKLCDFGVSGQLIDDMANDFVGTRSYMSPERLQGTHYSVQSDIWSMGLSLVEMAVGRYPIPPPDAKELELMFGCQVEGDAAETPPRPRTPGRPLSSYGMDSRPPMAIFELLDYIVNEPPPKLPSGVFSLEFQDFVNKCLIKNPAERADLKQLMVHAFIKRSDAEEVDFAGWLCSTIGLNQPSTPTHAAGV

Compound | pIC50
Cc1ccccc1Oc1ccc(Nc2snc(O)c2C(=N)NC(C)CO)cc1 (centres unmarked) [compound 300] | 7.00 to 9.00
N=C(NCC(O)CO)c1c(O)nsc1Nc1cccc(Cl)c1 (centres unmarked) [compound 75] | 6.30 to 7.00
N=C(NCC1CCCCC1)c1c(O)nsc1Nc1ccc(Oc2cc(Cl)ccc2Cl)cc1 [compound 441] | 7.00 to 9.00
CCOC(=O)c1cccc(Nc2snc(O)c2C(=N)NC(C)CO)c1 (centres unmarked) [compound 489] | < 6.30
CC(CO)NC(=N)c1c(O)nsc1Nc1ccc(Oc2ccc(C(F)(F)F)cc2)c(Cl)c1 (centres unmarked) [compound 396] | 6.30 to 7.00
COc1ccc(Nc2snc(O)c2C(=N)NCC2CCCCC2)cc1 [compound 60] | < 6.30
N=C(NCCN1CCCCC1)c1c(O)nsc1Nc1ccc(Oc2ccccc2)cc1 [compound 53] | 6.30 to 7.00
N=C(NCCOc1ccccc1)c1c(O)nsc1Nc1ccc(Oc2ccccc2)cc1 [compound 36] | 6.30 to 7.00
Oc1nsc(Nc2ccc(Oc3ccccc3)cc2)c1-c1noc(-c2ccccc2)n1 [compound 149] | < 6.30
N=C(NC1CCCCCC1)c1c(O)nsc1Nc1ccc(Oc2ccccc2)cc1 [Cpd 23] | 7.00 to 9.00
CC(CO)NC(=N)c1c(O)nsc1Nc1ccc(Oc2cccc(F)c2)cc1 (centres unmarked) [compound 273] | 7.00 to 9.00
CC(C)NC(=N)c1c(O)nsc1Nc1ccc(Oc2cccc(F)c2)cc1 [compound 272] | 7.00 to 9.00
COc1cc2c(cc1Nc1snc(O)c1C(=N)NCC1CCCCC1)oc1ccccc12 [compound 131] | < 6.30
CC(O)CNC(=N)c1c(O)nsc1Nc1ccc(Oc2cc(F)cc(F)c2)cc1 (centres unmarked) [compound 422] | 7.00 to 9.00
CC(C)NC(=N)c1c(O)nsc1Nc1ccc(Oc2ccc(F)cc2Cl)c(Cl)c1 [compound 297] | 6.30 to 7.00
CC(C)C(=O)O[C@H]1CC[C@H](c2ccc(Nc3snc(O)c3C(=N)NCC(O)CO)cc2)CC1 (some centres unmarked) [compound 195] | < 6.30
CC(C)NC(=N)c1c(O)nsc1Nc1ccc(Oc2ccc(S(C)(=O)=O)cc2)cc1 [compound 486] | < 6.30
N=C(NN1CCOCC1)c1c(O)nsc1Nc1ccc(Oc2cc(F)cc(F)c2)cc1 [compound 436] | 6.30 to 7.00
N=C(NCCO)c1c(O)nsc1Nc1ccc(Oc2ccc(F)cc2)c(Br)c1 [compound 207] | < 6.30
COCCCNc1snc(O)c1C(=N)NCCOc1ccccc1 [compound 112] | < 6.30
Cc1cc(Nc2snc(O)c2C(=N)NC(C)CO)ccc1Oc1ccc(C(F)(F)F)cc1 (centres unmarked) [compound 386] | < 6.30
CC(C)NC(=N)c1c(O)nsc1Nc1ccc(Oc2c(F)ccc(F)c2Cl)cc1 [compound 318] | 6.30 to 7.00
COC(=O)c1ccccc1Nc1snc(O)c1C(N)=NCC1CCCCC1 [compound 99] | < 6.30
N=C(NCC1CCCCC1)c1c(O)nsc1Nc1ccc(Sc2ccc([N+](=O)[O-])cc2)cc1 [compound 84] | 6.30 to 7.00
CC(C)NC(=N)c1c(O)nsc1Nc1ccc(Oc2ccccc2Br)cc1 [compound 293] | 7.00 to 9.00
N=C(NCC1CCCO1)c1c(O)nsc1Nc1ccc(Oc2ccccc2)cc1 (centres unmarked) [Cpd 25] | 7.00 to 9.00

Compound | pIC50
CCOC(=O)N1CCC(NC(=N)c2c(O)nsc2Nc2ccc(Oc3ccccc3)cc2)CC1 [compound 30] | 6.30 to 7.00
CC(C)NC(=N)c1c(O)nsc1Nc1ccc(Cl)nc1 [compound 264] | < 6.30
COc1ccc(Nc2snc(O)c2C(=N)NCc2ccc(C(F)(F)F)nc2)c(OC)n1 [compound 184] | < 6.30
CC(C)NC(=N)c1c(O)nsc1Nc1ccc(Oc2cc(C(F)(F)F)ccc2Cl)cc1F [compound 384] | 6.30 to 7.00
COCCNC(=N)c1c(O)nsc1Nc1ccc(Oc2cccc(F)c2F)cc1C [compound 505] | 7.00 to 9.00
CC(C)NC(=N)c1c(O)nsc1Nc1ccc(Oc2cc(F)cc(F)c2)cc1 [compound 287] | 7.00 to 9.00
Cc1cc(Nc2snc(O)c2C(=N)NC(C)C)ccc1Oc1ccccc1Cl [compound 316] | 7.00 to 9.00
CC(C)NC(=N)c1c(O)nsc1Nc1ccc(Oc2cccc(C(F)(F)F)c2F)cc1 [compound 353] | 7.00 to 9.00
CC(CO)NC(=N)c1c(O)nsc1Nc1ccc(Oc2ccccc2Cl)cc1 (centres unmarked) [compound 211] | < 6.30
COc1ccc(Nc2snc(O)c2-c2nnn[nH]2)c(OC)n1 [compound 181] | < 6.30
CN(C)CCNC(=N)c1c(O)nsc1Nc1ccc(Oc2cc(Cl)ccc2Cl)cc1 [compound 443] | 7.00 to 9.00
Cc1cc(Oc2cccc(C(F)(F)F)c2)ccc1Nc1snc(O)c1C(=N)NCC(O)CO (centres unmarked) [compound 472] | 7.00 to 9.00
N=C(NCc1ccccc1)c1c(O)nsc1Nc1ccc(Oc2cc(Cl)ccc2Cl)cc1 [compound 454] | 7.00 to 9.00
N=C(NCC1CCCCC1)c1c(O)nsc1Nc1ccc(N2CCCCC2)cc1 [compound 123] | < 6.30
CC(CCc1ccccc1)NC(=N)c1c(O)nsc1Nc1ccc(Oc2ccccc2)cc1 (centres unmarked) [compound 50] | 7.00 to 9.00
CC(C)NC(=N)c1c(O)nsc1Nc1ccc(Oc2cccc(C(F)(F)F)c2Cl)c(F)c1 [compound 373] | 7.00 to 9.00
N=C(NCC1CCCCC1)c1c(O)nsc1Nc1ccc(Sc2ccccc2)cc1 [compound 100] | 7.00 to 9.00
CC(C)(C)NC(=N)c1c(O)nsc1Nc1ccc(Oc2ccccc2)cc1 [compound 173] | 7.00 to 9.00
CC(CO)NC(=N)c1c(O)nsc1Nc1ccc(Oc2ccc(C(F)(F)F)cc2)cc1 (centres unmarked) [compound 377] | < 6.30
CC(C)NC(=N)c1c(O)nsc1Nc1ccc(Oc2ccc(F)cc2Cl)cc1C(F)(F)F [compound 407] | 7.00 to 9.00
N=C(NCC(O)O)c1c(O)nsc1Nc1ccc([N+](=O)[O-])cc1 [compound 78] | < 6.30
CC(C)NC(=N)c1c(O)nsc1Nc1ccc(Oc2cccc(F)c2F)nc1 [compound 429] | 6.30 to 7.00
N=C(NCC1CCCCC1)c1c(O)nsc1Nc1cccc(Cl)c1Cl [compound 96] | < 6.30
Cc1cc(Oc2cc(F)cc(F)c2)ccc1Nc1snc(O)c1C(=N)NO [compound 465] | 6.30 to 7.00
Cc1cc(Oc2ccc(F)c(F)c2)ccc1Nc1snc(O)c1C(=N)NC(C)C [compound 459] | 7.00 to 9.00
Cc1cc(Oc2ccccc2)ccc1Nc1snc(O)c1C(=N)NC(C)C [compound 334] | 7.00 to 9.00

Compound | pIC50
N=C(NCC1CCCCC1)c1c(O)nsc1Nc1ccc(Oc2ccc(Cl)cc2)cc1 [compound 140] | 7.00 to 9.00
COc1ccc(CNC(=N)c2c(O)nsc2NCc2ccc(OC)cc2)cc1 [compound 115] | < 6.30
CCC[C@H]1CC[C@H](c2ccc(Nc3snc(O)c3C(=N)NC[C@@H](O)CO)cc2)CC1 [compound 193] | < 6.30
CCNC(=N)c1c(O)nsc1Nc1ccc(Oc2ccccc2)cc1 [compound 199] | 7.00 to 9.00
N=C(NCc1ccccn1)c1c(O)nsc1Nc1ccc(Oc2ccccc2)cc1 [compound 38] | 6.30 to 7.00
N=C(NCC(O)CO)c1c(O)nsc1Nc1ccc(C2CCCCC2)cc1 (centres unmarked) [compound 186] | < 6.30
CC(O)CNC(=N)c1c(O)nsc1Nc1ccc(-c2nc3ccccc3[nH]2)cc1 (centres unmarked) [compound 510] | < 6.30
N=C(NCC1CCCCC1)c1c(O)nsc1NC1CCc2ccccc21 (centres unmarked) [compound 116] | < 6.30
CC(C)NC(=N)c1c(O)nsc1Nc1ccc(Oc2ccc(Cl)cc2)cc1 [compound 183] | 7.00 to 9.00
COCCNC(=N)c1c(O)nsc1Nc1ccc(Oc2cc(F)cc(F)c2)cc1C [compound 470] | 7.00 to 9.00
CC(C)NC(=N)c1c(O)nsc1Nc1ccc(Oc2cc(C(F)(F)F)cc(C(F)(F)F)c2)cc1 [compound 331] | 7.00 to 9.00
Cc1ccc(Cl)c(Oc2ccc(Nc3snc(O)c3C(=N)NC(C)C)cc2)c1 [compound 292] | 7.00 to 9.00
Cc1ccc(F)c(Oc2ccc(Nc3snc(O)c3C(=N)NC(C)CO)cc2)c1 (centres unmarked) [compound 348] | 7.00 to 9.00
CC(C)NC(=N)c1c(O)nsc1Nc1ccc(Oc2ccccc2F)c(F)c1 [compound 310] | 7.00 to 9.00
CC(CO)NC(=N)c1c(O)nsc1Nc1ccc(Oc2ccccc2)c(F)c1 (centres unmarked) [compound 306] | 7.00 to 9.00
CC(C)NC(=N)c1c(O)nsc1Nc1ccc(Sc2ccccc2)cc1 [compound 255] | 7.00 to 9.00
N=C(NCCCO)c1c(O)nsc1NCC1CCCCC1 [compound 125] | < 6.30
CC(C)NC(=N)c1c(O)nsc1Nc1ccc(Oc2cc(Cl)cc(Cl)c2)cc1 [compound 248] | 7.00 to 9.00
CC(C)NC(=N)c1c(O)nsc1Nc1ccc(Oc2ccc(F)cc2)c(F)c1 [compound 395] | 6.30 to 7.00
N=C(NCC(O)O)c1c(O)nsc1Nc1ccc(Oc2ccc(F)cc2)c(Br)c1 [compound 208] | < 6.30
Cc1cc(C#N)cc(C)c1Oc1ccc(Nc2snc(O)c2C(=N)NC(C)C)cc1 [compound 262] | < 6.30
Cc1ccc2cc(Nc3snc(O)c3C(=N)NCC3CCCCC3)ccc2n1 [compound 106] | < 6.30
COC(=O)c1cccc(Nc2snc(O)c2C(=N)NC(C)C)c1C [compound 479] | < 6.30
CC(CO)NC(=N)c1c(O)nsc1Nc1ccc(Oc2ccc(F)cc2)c(F)c1 (centres unmarked) [compound 393] | 7.00 to 9.00
CC(C)NC(=N)c1c(O)nsc1Nc1ccc(Oc2cc(F)cc(F)c2Cl)cc1 [compound 329] | 7.00 to 9.00

Same assay, conditions: Table 2, Ar1-A contains an amido or indolo group; read-out: IC 50

Compound | pIC50
CC(C)NC(=N)c1c(O)nsc1Nc1ccc(C(=O)NC(C)C)cc1 [E-9] | 6.00 to 6.70
CC(C)NC(=N)c1c(O)nsc1Nc1ccc(C(=O)N2CCc3ccccc32)cc1 [E-10] | 6.70 to 9.00
N=C(NCCO)c1c(O)nsc1Nc1ccc(C(=O)N2CCc3ccccc32)cc1 [E-13] | < 6.00

Same assay, conditions: Table 4, R' is (CH2)1 or 2-G; read-out: IC50

Compound | pIC50
N=C(NCCN1CCOCC1)c1c(O)nsc1Nc1ccc(Oc2cc(F)cc(F)c2)cc1 [drawing 830] | 6.30 to 7.00
N=C(NCC1CCCCC1)c1c(O)nsc1Nc1ccc(Sc2ccc([N+](=O)[O-])cc2)cc1 [drawing 831] | 6.30 to 7.00
Cc1ccc(Oc2ccc(Nc3snc(O)c3C(=N)NCC3CCCCC3)cc2)cc1 [drawing 823] | 7.00 to 9.00
